# Source: patent US20190275167A1, “GLASS FORMULATIONS AND USES THEREOF” (priority 2018, published 2019)
# Assays:
# [1] = Drug release from heat-molded pellets/articles in release buffer (PBS, 1% FBS in PBS or 100% FBS) at 37° C., HPLC quantification; assay type: physicochemical; settings: for Drug release from heat molded pellets: pellets 1 mm×1 mm
# Description: Samples were incubated at 37° C. on a shaker rotating at 115 rpm. After 1 day, 3 days, 7 days, and subsequently in alternating 3 and 4 day intervals (i.e., 1, 3, 7, 10, 14 days etc.), release buffer was sampled directly (PBS) or syringe filtered, proteins were precipitated with acetonitrile, and drug release products were extracted. The samples were analyzed by high performance liquid chromatography (HPLC) to quantify drug products.
# [2] = Ethylene oxide (ETO) gas sterilization of heat-molded pellets, purity by HPLC and drug release pre- and post-ETO; assay type: physicochemical; settings: ETO gas at 55° C.
# [3] = tested on: joint of a subject suffering from inflammation, e.g., arthritis; assay: Microparticles and nanoparticles injected into the joint of a subject suffering from inflammation; assay type: in vivo
# Description: Microparticles and nanoparticles are formed from Compound 1 according to the methods described in above. […] Local inflammation in the joint of the subject is reduced. Similarly, the other compounds of the disclosure can likewise be used to form micro- and nanoparticles and injected into the joint of a subject for the purposes of treating, e.g., inflammation, and the drug is released at a steady rate over several months (e.g., three months).
Speed of drug release compared to other drug dimers with triethylene glycol linker ([1]; 100% FBS),"Drug release from heat molded pellets ([1]; 100% FBS, 37° C.)","Drug release from heat molded pellets ([1]; PBS, 37° C.)",Molecule,also measured
release very quickly,,,Hydrocortisone-Triethylene Glycol-Hydrocortisone [Compound 2],
,,,"C[C@@H]1C[C@H]2[C@@H]3CCC4=CC(=O)C=C[C@]4(C)[C@@]3(F)[C@@H](O)C[C@]2(C)[C@@]1(O)C(=O)COC(=O)OCCOCCOCCOC(=O)OCC(=O)[C@@]1(O)[C@H](C)C[C@H]2[C@@H]3CCC4=CC(=O)C=C[C@]4(C)[C@@]3(F)[C@@H](O)C[C@@]21C [Compound 1, Dexamethasone-Triethylene Glycol-Dexamethasone]","Shape of pellets during surface erosion (FIG. 1F (100% FBS)): maintaining their shape; Physical form (shape) changes of articles (physiologically relevant conditions): do not; Change in pellet purity due to ETO sterilization (HPLC) ([2]; pre- vs post-sterilization): no changes; Change in release properties due to ETO sterilization ([2]; release in 1% FBS in PBS or 100% FBS): no changes; Mechanism of drug release from pellets (representative images over time) ([1]; 100% FBS, 37° C.): surface erosion; Dexamethasone release profile from articles ([1]; over the course of 12 weeks or more, FIGS. 1E, 12E, 15C, 17D): generally linear; Local inflammation in the joint of the subject [3]: reduced; Release of drug into the subject from injected micro- and nanoparticles [3]: steady rate over three months"
,no drug was released,no drug was released,Fusidic Acid-Triethylene Glycol-Fusidic Acid (ester) [Compound 15],
release very quickly,,,Fusidic Acid-Triethylene Glycol-Fusidic Acid (carbonate ester) [Compound 9],
,no drug was released,no drug was released,Ethinylestradiol-Triethylene Glycol-Ethinylestradiol [Compound 16],

Molecule,Speed of drug release compared to other drug dimers with triethylene glycol linker ([1]; 100% FBS),"Drug release from heat molded pellets ([1]; 100% FBS, 37° C.)","Drug release from heat molded pellets ([1]; PBS, 37° C.)",also measured
Cholesterol-Triethylene Glycol-Cholesterol [Compound 14],,no drug was released,no drug was released,
